According to patent US12606523B2, “Deuterated organic compounds and uses thereof” (ENGRAIL THERAPEUTICS, INC., priority 2022, dated 2026):

How the values were obtained:
[1] = target: T1, human Serotonin 5-HT7A receptor (Homo sapiens, UniProt P34969); test: Radioligand binding competition, filtration, [3H]-LSD, CHO-K1 membranes
T1 construct: expressed in transfected cells; host or cells: CHO-K1

[2] = target: T1, human Serotonin 5-HT7A receptor; test: cAMP HTRF functional assay, antagonist mode; type: cell-based
[3] = target: T2, 5-HT1A (Homo sapiens, UniProt P08908); test: Functional assay, antagonist mode (Table 6); type: cell-based; conditions: read-out: 5-HT1A (antagonist mode) Emax
T2 sequence (P08908 1-422): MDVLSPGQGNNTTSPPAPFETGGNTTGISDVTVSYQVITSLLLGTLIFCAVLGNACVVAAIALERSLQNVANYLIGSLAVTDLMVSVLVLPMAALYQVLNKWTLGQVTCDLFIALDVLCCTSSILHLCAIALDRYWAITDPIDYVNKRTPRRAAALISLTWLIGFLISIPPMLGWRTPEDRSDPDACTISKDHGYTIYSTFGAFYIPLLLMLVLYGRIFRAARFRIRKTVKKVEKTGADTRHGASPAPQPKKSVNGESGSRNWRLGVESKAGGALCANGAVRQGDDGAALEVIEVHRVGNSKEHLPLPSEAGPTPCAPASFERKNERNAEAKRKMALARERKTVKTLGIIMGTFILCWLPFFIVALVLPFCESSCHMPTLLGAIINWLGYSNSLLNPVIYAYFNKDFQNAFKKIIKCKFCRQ

[4] = target: 5-HT2B (Homo sapiens, UniProt P41595); test: Functional assay, antagonist mode (Table 6); type: cell-based
[5] = system: Sprague Dawley rats; test: Touchscreen-based rat Probabilistic Reward Task; type: in vivo
Source text: The Probabilistic Reward Task (PRT) uses visual discrimination methodology to quantify reward responsiveness to both identify deficits and characterize drug-induced improvements.
Male Sprague Dawley rats are used in the present study.
Briefly, a custom-built Plexiglas chamber (25×30×35 cm) is situated in a sound- and light-attenuating enclosure (40×60×45 cm). A 17″ touch-sensitive screen (1739L, ELO TouchSystems, Menlo Park, CA) comprises the inside right-hand wall of the enclosure. An infusion pump (PHM-100-5, Med Associates, St. Albans, VT) outside the enclosure is used to deliver sweetened condensed milk solution into the shallow reservoir of a custom-designed aluminum receptacle. The receptacle is mounted 3 cm above the floor bars and centered on the left-hand inside wall. Both touchscreen and fluid reservoir are easily accessible to the subject. A speaker bar (NQ576AT, Hewlett-Packard, Palo Alto, CA) mounted above the touchscreen is used to emit audible feedback. All experimental events and data collection are programmed in E-Prime Professional 2.0 (Psychology Software Tools, Inc., Sharpsburg, PA). […]
Following line-length discrimination training, probabilistic reinforcement schedules are introduced. […] These probabilistic contingencies are assessed across 5 consecutive sessions prior to initiation of drug testing. […]

[6] = system: Sprague Dawley rats; test: Headshake response; type: in vivo, rat
Procedure: Adult male Sprague Dawley rats are used. […] DOI (3 mg/kg) is dissolved in saline and administered IP at a dose volume of 1 ml/kg (10 minutes prior to test).
The headshake response is a rapid, rhythmic shaking of the head in a radial motion. Data are analyzed by ANOVA followed by post hoc analysis where appropriate.

[7] = system: Sprague Dawley rats; test: DOI-induced headshake response; type: in vivo; conditions: rat
Procedure: Adult male Sprague Dawley rats are used. […] DOI (3 mg/kg) is dissolved in saline and administered IP at a dose volume of 1 ml/kg (10 minutes prior to test). Ketanserin (1 mg/kg) is dissolved in saline and injected IP 30 minutes prior to DOI at a dose volume of […].
Rats are then injected with DOI and headshakes are recorded 10 minutes after DOI injection for 10 minutes using video cameras. The headshake response is a rapid, rhythmic shaking of the head in a radial motion. Data is analyzed by ANOVA followed by post hoc analysis where appropriate.

[8] = target: human Dopamine D2L receptor (Homo sapiens, UniProt P14416); conditions: cAMP, % inhibition of reference agonist at EC80
Procedure: (§1) SPA ^35S-GTPgS experiments are conducted with membrane preparations. IP-One and cAMP HTRF assays are conducted with recombinant cell lines.
(§2) Agonist activity of test compounds is expressed as a percentage of the activity of the reference agonist at its EC100 concentration. Antagonist activity of the test compound is expressed as a percentage of the inhibition of reference agonist activity at its EC80 concentration.

[9] = system: Sprague Dawley rats; conditions: rat, in vivo, po, 5 mg/kg
Source text: (§3) The Conditioned Avoidance Response (CAR) Test is an animal model screening for antipsychotic drugs.

[10] = system: Sprague Dawley rats; test: Conditioned Avoidance Response test; conditions: rat
Source text: as §3

[11] = target: human Dopamine D2S receptor (Homo sapiens, UniProt P14416); conditions: cAMP, % inhibition of reference agonist at EC80
Procedure: (§4) IP-One and cAMP HTRF assays are conducted with recombinant cell lines.
as §2

[12] = target: human Dopamine D3 receptor (Homo sapiens, UniProt P35462); conditions: GTPγS; % inhibition of reference agonist at EC80
Procedure: as §1, §2

[13] = target: T3, human Dopamine D4.4 receptor (Homo sapiens, UniProt P21917); conditions: cAMP; % inhibition of reference agonist at EC80
T3 sequence (P21917 1-419): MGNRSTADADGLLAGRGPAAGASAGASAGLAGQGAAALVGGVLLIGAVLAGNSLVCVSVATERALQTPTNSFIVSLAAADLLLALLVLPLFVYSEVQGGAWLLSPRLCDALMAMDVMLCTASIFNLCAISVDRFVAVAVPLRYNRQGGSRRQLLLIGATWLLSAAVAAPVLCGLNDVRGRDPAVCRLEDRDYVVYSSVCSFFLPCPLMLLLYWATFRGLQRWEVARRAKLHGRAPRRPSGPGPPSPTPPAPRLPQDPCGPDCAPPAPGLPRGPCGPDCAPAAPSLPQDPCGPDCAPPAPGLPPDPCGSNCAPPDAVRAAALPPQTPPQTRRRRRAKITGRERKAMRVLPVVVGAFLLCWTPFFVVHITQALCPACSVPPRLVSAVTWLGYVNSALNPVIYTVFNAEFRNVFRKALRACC
Procedure: as §1, §2

[14] = target: T4, human Serotonin 5-HT1A receptor (Homo sapiens, UniProt P08908); conditions: cAMP; % of reference agonist at EC100
T4 sequence (P08908 1-422): T2 sequence (P08908 1-422)
Procedure: as §1, §2

[15] = target: T5, human Serotonin 5-HT2A receptor (Homo sapiens, UniProt P28223); conditions: IP-one; % of reference agonist at EC100
Procedure: as §1, §2

[16] = target: T5, human Serotonin 5-HT2A receptor; test: IP-One HTRF functional assay, antagonist mode; type: cell-based; set-up: expressed in transfected cells; host or cells: CHO-K1; conditions: % inhibition of reference agonist at EC80
Procedure: as §4, §2

[17] = 2.5 and 5 mg/kg orally 4 hours prior to test
[18] = 0.5 mg/kg i.p. 30 minutes prior to test

T1 sequence (P34969 1-445 isoform P34969-2): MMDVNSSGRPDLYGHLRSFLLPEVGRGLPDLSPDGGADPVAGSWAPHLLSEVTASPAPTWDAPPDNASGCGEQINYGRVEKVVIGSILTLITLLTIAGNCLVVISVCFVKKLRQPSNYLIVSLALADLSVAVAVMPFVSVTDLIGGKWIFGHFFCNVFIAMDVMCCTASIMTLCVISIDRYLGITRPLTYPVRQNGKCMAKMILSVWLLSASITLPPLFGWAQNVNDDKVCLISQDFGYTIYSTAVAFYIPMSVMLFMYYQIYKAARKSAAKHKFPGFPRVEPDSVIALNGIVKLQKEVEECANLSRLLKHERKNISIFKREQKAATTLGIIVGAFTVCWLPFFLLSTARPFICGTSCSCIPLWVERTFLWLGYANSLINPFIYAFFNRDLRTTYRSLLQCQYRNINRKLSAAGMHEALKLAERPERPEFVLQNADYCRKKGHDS
T5 sequence (P28223 whole entry): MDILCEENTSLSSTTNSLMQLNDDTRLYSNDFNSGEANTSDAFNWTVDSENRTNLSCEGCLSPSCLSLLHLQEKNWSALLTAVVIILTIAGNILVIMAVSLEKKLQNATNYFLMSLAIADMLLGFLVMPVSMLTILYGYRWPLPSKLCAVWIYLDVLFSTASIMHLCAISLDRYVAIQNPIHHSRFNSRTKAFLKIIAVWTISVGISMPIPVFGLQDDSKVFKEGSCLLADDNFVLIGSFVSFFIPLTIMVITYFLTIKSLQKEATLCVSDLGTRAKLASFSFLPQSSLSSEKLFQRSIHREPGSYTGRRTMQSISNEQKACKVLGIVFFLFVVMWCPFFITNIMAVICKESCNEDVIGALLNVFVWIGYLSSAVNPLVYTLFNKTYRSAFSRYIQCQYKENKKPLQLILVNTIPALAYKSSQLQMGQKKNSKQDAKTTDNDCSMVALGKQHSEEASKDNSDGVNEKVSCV
Sequence of human Dopamine D2L receptor (P14416 whole entry): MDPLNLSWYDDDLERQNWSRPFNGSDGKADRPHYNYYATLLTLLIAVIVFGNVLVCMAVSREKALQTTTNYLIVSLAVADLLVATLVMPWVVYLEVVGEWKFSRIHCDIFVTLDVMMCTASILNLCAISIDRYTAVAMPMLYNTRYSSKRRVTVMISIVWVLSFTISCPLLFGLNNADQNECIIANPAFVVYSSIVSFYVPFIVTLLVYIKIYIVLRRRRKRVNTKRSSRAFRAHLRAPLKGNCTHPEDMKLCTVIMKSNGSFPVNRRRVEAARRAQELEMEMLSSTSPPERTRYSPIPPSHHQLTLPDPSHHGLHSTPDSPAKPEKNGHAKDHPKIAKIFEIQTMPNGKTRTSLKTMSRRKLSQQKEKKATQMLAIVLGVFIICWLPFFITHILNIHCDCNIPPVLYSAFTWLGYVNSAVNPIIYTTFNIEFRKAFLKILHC
Sequence of 5-HT2B (P41595 whole entry): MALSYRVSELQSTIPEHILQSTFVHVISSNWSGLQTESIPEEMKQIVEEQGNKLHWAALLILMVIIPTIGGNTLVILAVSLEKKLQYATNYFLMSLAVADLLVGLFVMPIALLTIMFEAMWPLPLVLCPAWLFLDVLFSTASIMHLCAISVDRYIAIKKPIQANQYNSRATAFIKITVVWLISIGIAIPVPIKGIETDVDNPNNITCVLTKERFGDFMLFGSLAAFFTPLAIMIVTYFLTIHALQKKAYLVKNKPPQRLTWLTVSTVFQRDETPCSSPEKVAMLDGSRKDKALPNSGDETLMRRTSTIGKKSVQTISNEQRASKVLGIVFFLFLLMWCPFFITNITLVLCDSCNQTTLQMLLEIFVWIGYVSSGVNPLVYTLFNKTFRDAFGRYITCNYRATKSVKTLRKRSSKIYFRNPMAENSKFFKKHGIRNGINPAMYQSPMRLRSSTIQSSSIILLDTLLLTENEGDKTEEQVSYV
Sequence of human Dopamine D2S receptor (P14416 1-414 isoform P14416-2): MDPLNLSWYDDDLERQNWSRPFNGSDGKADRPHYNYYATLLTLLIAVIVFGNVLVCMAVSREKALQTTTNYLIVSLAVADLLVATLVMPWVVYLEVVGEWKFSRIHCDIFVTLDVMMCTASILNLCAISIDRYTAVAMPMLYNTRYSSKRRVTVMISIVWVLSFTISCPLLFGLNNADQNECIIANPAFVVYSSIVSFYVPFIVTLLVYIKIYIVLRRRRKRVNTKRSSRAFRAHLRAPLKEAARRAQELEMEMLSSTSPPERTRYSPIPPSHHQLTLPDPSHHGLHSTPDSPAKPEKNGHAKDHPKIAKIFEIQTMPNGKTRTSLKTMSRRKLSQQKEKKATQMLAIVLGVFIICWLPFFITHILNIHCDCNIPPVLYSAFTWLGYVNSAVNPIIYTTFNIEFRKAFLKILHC
Sequence of human Dopamine D3 receptor (P35462 whole entry): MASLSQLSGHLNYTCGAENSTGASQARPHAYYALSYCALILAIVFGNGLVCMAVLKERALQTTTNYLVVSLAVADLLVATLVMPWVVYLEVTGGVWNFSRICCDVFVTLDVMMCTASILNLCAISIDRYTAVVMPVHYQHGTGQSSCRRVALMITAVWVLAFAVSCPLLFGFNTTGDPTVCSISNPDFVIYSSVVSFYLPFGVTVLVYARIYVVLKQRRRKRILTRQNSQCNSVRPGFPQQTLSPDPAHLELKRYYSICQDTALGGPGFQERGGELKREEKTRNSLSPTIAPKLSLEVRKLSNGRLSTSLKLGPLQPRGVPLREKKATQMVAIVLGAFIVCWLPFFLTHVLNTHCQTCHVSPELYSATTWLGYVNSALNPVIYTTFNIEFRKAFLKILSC

`[2H]C([2H])([2H])Nc1cc(OC)c(C(=O)N[C@H]2CCN(C([2H])([2H])c3ccccc3)[C@H]2C)cc1Cl` [Example A1, 5-Chloro-N-((2S,3S)-1-(dideutero(phenyl)methyl)-2-methylpyrrolidin-3-yl)-2-methoxy-4-(trideuteromethylamino)benzamide] showed a Ki [1] of 74.4 nM, an IC50 [2] of 2240 nM and an Emax [3] of 63%. The Emax [4] was 92%, the “log b vs vehicle, Cohen's d” value ([5]; 0.5 mg/kg orally, n=8, paired t-test p=0.006) was 1.21 and the “log b vs vehicle, Cohen's d” value ([5]; 1 mg/kg orally, n=8, paired t-test p=0.04) was 0.75. The “number of headshakes compared to vehicle” value ([6]; rat, 1, 5 and 10 mg/kg PO 4 hours prior to test) was “no significant increase”, the DOI-induced headshake responses ([7]; 1 mg/kg PO 4 hours prior, DOI 3 mg/kg IP, p=0.051) was “non-significant trend to decreasing” and the DOI-induced headshake responses ([7]; 5 and 10 mg/kg PO 4 hours prior, DOI 3 mg/kg IP) was “decrease”. For the same compound, the “D2 (antagonist mode) Top % Inhibition at maximal concentration, D2L” value [8] was “cAMP 81 (D2L) %”, the “escape failures compared to vehicle” value [9] was “increase” and the “number of avoidance responses compared to vehicle” value [10, 17] was “significantly decrease”. The “percent avoidance compared to vehicle” value [10, 17] was “significantly decrease”.

With `Cc1nc2n(c(=O)c1CCN1CCC(c3noc4cc(F)ccc34)CC1)CCCC2` [risperidone, Risperidone, reference compound] the “number of avoidance responses compared to vehicle” value [10, 18] was “significantly decrease” and the “percent avoidance compared to vehicle” value [10, 18] was “significantly decrease”.

`O=C(c1ccc(F)cc1)C1CCN(CCn2c(=O)[nH]c3ccccc3c2=O)CC1` [Ketanserin, reference compound] was tested, and the DOI-induced headshake responses ([7]; 1 mg/kg IP 30 minutes prior to DOI 3 mg/kg IP) was “decrease”.

`CNc1cc(OC)c(C(=O)N[C@H]2CCN(Cc3ccccc3)[C@H]2C)cc1Cl` [cis (S,S) nemonapride, N-[(2S,3S)-1-benzyl-2-methylpyrrolidin-3-yl]-5-chloro-2-methoxy-4-(methylamino)benzamide] was tested, and the IC50 [1] was 167 nM, the Ki [1] was 117 nM and the “D2 (antagonist mode) Top % Inhibition at maximal concentration, D2S” value [11] was “cAMP 88 (D2S) %”. For the same compound, the “D2 (antagonist mode) Top % Inhibition at maximal concentration, D2L” value [8] was “cAMP 84 (D2L) %”, the “D3 (antagonist mode) Top % Inhibition at maximal concentration” value [12] was “GTPγS 117%” and the “D4 (antagonist mode) Top % Inhibition at maximal concentration” value [13] was “cAMP 67%”. The “5-HT1A (agonist mode) Top % Activation at maximal concentration” value [14] was “cAMP 17%”, the “5-HT2A (agonist mode) Top % Activation at maximal concentration” value [15] was “IP-one 29%” and the “5-HT2A (antagonist mode) Top % Inhibition at maximal concentration” value [16] was “IP-one 52%”.

`COc1cc(CC(C)N)c(OC)cc1I` (centres unmarked) [DOI, reference compound] was tested, and the “number of headshakes compared to vehicle” value ([6]; rat, 3 mg/kg IP 10 minutes prior to test) was “significantly increases” and the “number of headshakes compared to vehicle” value ([7]; DOI 3 mg/kg IP) was “significantly increases”.

With `CNc1cc(OC)c(C(=O)N[C@H]2CCN(Cc3ccccc3)[C@H]2C)cc1Cl` (racemic) [Nemonapride, (±)-cis-N-(1-Benzyl-2-methylpyrrolidin-3-yl)-5-chloro-2-methoxy-4-methylaminobenzamide] the “5-HT1A (agonist mode) Top % Activation at maximal concentration” value [14] was “cAMP 52%” and the “5-HT2A (agonist mode) Top % Activation at maximal concentration” value [15] was “IP-one 48%”.
